Measured values as given in paper PMC3089467 (Nucleic Acids Research, 2011).

Target: T1, HhaI DNA cytosine-5 methyltransferase (M.HhaI) (Haemophilus parahaemolyticus, UniProt P05102)
T1 sequence (P05102 1-327): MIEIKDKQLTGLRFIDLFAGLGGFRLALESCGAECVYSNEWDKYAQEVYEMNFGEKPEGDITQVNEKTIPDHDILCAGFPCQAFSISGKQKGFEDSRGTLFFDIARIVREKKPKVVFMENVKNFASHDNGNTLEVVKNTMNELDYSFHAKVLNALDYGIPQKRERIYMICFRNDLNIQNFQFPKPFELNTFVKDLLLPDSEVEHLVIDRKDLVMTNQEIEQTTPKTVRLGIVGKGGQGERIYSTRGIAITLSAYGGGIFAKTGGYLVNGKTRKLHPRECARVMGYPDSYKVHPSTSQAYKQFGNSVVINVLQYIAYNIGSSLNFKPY
Assay: stopped-flow absorbance, ternary complex with DNA
Assay type: binding
Conditions: 100 µM AdoHcy; cognate GCGC/GMGC duplex; pH 7.4, 25 °C

Compound: Nc1ncnc2c1ncn2[C@@H]1O[C@H](CSCC[C@H](N)C(=O)O)[C@@H](O)[C@H]1O [AdoHcy]
- stopped-flow absorbance, ternary complex with DNA: The remaining signal is regained upon addition of AdoHcy to the preformed M.HhaI–DNA complex
